# Results as given in patent publication US5461057A, “Hydro-ethano-indeno-pyridines” (priority 1994, dated 1995).
# pIC50: −log10 of the molar value.
# How the values were obtained:
# [1] = system: acetic acid-induced writhing; assay: Acetic Acid Writhing Test in Mice; assay type: in vivo, mouse; details: Mus musculus, po, read-out: WRITH ED50
# Procedure, shortened: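 Writhing provoked by intraperitoneal acetic acid in mice, following the Hendershot and Koster procedures. Values are effective doses (ED50) in mg/kg.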
# methamphetamine toxicity = assay: Methamphetamine toxicity test in mice; assay type: in vivo; details: Mus musculus, read-out: METHA ED50
# Method: The methamphetamine toxicity test in mice was carried out as described in Burn et al, Arch. Int. Pharmacodyn 113:290-295, (1958); and Coscia et al, Arzneim-Forsch (Drug Research) 25:1436-1442, (1975); which are hereby incorporated by reference.
# The results for this test are given below as ED50's in the units of mg/kg.
# METHA refers to the methamphetamine toxicity test in mice;
# [2] = system: PDGF-BB-stimulated mitogenesis of bovine smooth muscle cells; assay: Smooth muscle cell mitogenesis test; assay type: cell-based
# Method: The procedure for the Smooth Muscle Cell Mitogenesis test is given just below. The fibronectin adhesion inhibitor, compound B, was tested for inhibitory effects on PDGF (Platelet Derived Growth Factor) BB-stimulated mitogenesis of bovine smooth muscle cells. Cells were exposed to PDGF with and without compound B in 24-well plates for 16 hours.
# pulmonary resistance = assay: Pulmonary Resistance in the Anesthetized Rat; assay type: in vivo; details: 0.5 mpk, i.v.; mean of 5 animals; % decrease in pre-drug baseline resistance
# Procedure, shortened: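 Dialurethane-anesthetized rats (400-500 g) with tracheal and esophageal catheters; air flow and tracheal/esophageal pressures used to derive pulmonary resistance. Compounds given i.v. to 5 animals each; values are mean % decrease from pre-drug baseline resistance.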
Structure (SMILES),ED50 [1] [mg/kg],ED50 (methamphetamine toxicity) [mg/kg],3H-Thymidine Incorporation (dpm/1000 ± S.E.M.) ([2]; 0.1 μM + 1 ng/ml PDGF-BB) [dpm/1000],3H-Thymidine Incorporation (dpm/1000 ± S.E.M.) ([2]; 0.3 μM + 1 ng/ml PDGF-BB) [dpm/1000],3H-Thymidine Incorporation (dpm/1000 ± S.E.M.) ([2]; 1 μM + 1 ng/ml PDGF-BB) [dpm/1000],3H-Thymidine Incorporation (dpm/1000 ± S.E.M.) ([2]; 3 μM + 1 ng/ml PDGF-BB) [dpm/1000],cell detachment ([2]; 10 μM),3H-Thymidine Incorporation (dpm/1000 ± S.E.M.) ([2]; 10 μM + 1 ng/ml PDGF-BB) [dpm/1000],"inhibition at 0.1 µM ([2]; Bos taurus, 0.1 μM + 1 ng/ml PDGF-BB) [%]","inhibition at 0.3 µM ([2]; Bos taurus, 0.3 μM + 1 ng/ml PDGF-BB) [%]","inhibition at 1 µM ([2]; Bos taurus, 1 μM + 1 ng/ml PDGF-BB) [%]","inhibition at 3 µM ([2]; Bos taurus, 3 μM + 1 ng/ml PDGF-BB) [%]","inhibition at 10 µM ([2]; Bos taurus, 10 μM + 1 ng/ml PDGF-BB) [%]","pIC50 ([2]; Bos taurus, 16 hours, read-out: inhibition of PDGF-stimulated mitogenesis IC50)","Pulmonary Resistance in Rats, % Inhibition (pulmonary resistance) [%]"
COc1ccc(C2=C3CC4CCC(N4)C3c3ccccc32)cc1 (stereo not drawn) [Compound B],> 30,> 30,406.8 ± 30.2,347.7 ± 9.8,156.3 ± 7.2,17.0 ± 1.9,caused cells to detach from the plate,7.3 ± 5.3,-2.7,18.5,87.1,137,140,6.28,–
Cc1ccc(C2=C3CC4CCC(C3c3ccccc32)N4C)cc1 (stereo not drawn) [J],–,–,–,–,–,–,–,–,–,–,–,–,–,–,35
